Where a SMILES comes first, the peptide text is derived from it. The star is where a group is joined. Cbz = O=C(OCc1ccccc1)*; CH2F = FC*
Legend:
whole blood samples [1] = experiment: 18S DNA duplex real time PCR assay, increase of DNA in plasma of stored blood, example 5; format: cell-based, human; conditions: 20 μM caspase inhibitor in whole blood; storage at RT
[2] = in DMSO (highest concentration listed in the cell); cited from earlier work
whole blood samples [3] = experiment: DNA size distribution by chip gel electrophoresis (blood cell stability/DNA release); format: cell-based, human; conditions: 20 μM in 10 ml K2E blood; day 3 and day 7
Description: To separate the blood plasma from the whole blood, the blood samples were centrifuged for 15 min at 5000 rpm, and the obtained plasma samples were again centrifuged for 10 min at 16.000×g at 4° C.
The circulating, extracellular nucleic acids were purified from the obtained plasma samples using the QIAamp® Circulating NA Kit (QIAGEN, according to the handbook). In brief: • 10 ml sample input; • lysis: 1 ml Proteinase K and 8 ml Buffer ACL (QIAGEN) • binding: 18 ml Buffer ACB (QIAGEN) • wash-steps: unchanged and according to handbook • elution in 60 μl Buffer AVE (QIAGEN)
1.3.1 Measurement of the blood cell stability/DNA release by the determination of DNA size distribution using a chip gel electrophoresis (2100 Bioanalyzer; Agilent Technologies; Inc., USA) according to manufacturer's instruction (see handbook Agilent DNA 7500 and DNA 12000 Kit Guide), but 1.5 μl instead of 1 μl sample were transferred to the wells.
Each tested caspase inhibitor was added to whole blood samples (20 μM end concentration in 10 ml blood; blood was collected into Vacutainer K2E Tubes; BD). The whole blood sample was processed as described in section 1 (plasma preparation and nucleic acid isolation).
The eluted circulating cell-free DNA was separated by size using chip gel electrophoresis (for details on the method see above). […]

Compound: COC(=O)C[C@H](NC(=O)[C@H](C)NC(=O)[C@@H](NC(=O)OCc1ccccc1)C(C)C)C(=O)CF [Z-Val-Ala-Asp(OMe)-FMK] (Cbz-Val-Ala-Asp(OMe)-CH2F)
- increase of DNA from day 0 to day 3 or 7 (whole blood samples [1]): more prominent on day 7
- solubility [2]: 20 mM, add 107 μl DMSO 10 mM, add 214 μl DMSO 5 mM, add 428 μl DMSO
- ladder-like pattern of bands (release and fragmentation of genomic DNA) compared to controls (whole blood samples [3]): reduced ladder-like pattern
